Measurements: patent publication US5496703A, “Indirect immunoassay for dioxinlike compounds” (priority 1993, dated 1996)

What was measured:
[1] = test system: total hepatic S-9 protein tyrosylphosphorylation; test: ELISA with antiphosphotyrosine monoclonal antibody, total hepatic S-9 protein tyrosylphosphorylation, mice dosed i.p.; format: in vivo, C57BL/6 mice
Procedure: Female, C57BL/6 mice (or any cytochrome P-450IA1 inducible strain) were obtained from Harton Sprague Dawley (Indianapolis, Ind.). Experiments were performed using four to six week old, female mice weighing approximately 16 to 20 g. Mice were fed Prolab RMH 1000 rat, mouse and hamster food (Agway, Cortland, N.Y.) and received tap water ad libitum. All mice were housed three to five per cage and maintained on a photoperiod of 12 hours. Mice were killed 24 hours following an intraperitoneal injection of either corn oil alone or TCDD (Analabs) at 0.25, 0.5, 1, 2, 4, 10, 50 μg/kg, the volume of the injections ranged from 0.1 to 0.2 ml per mouse. Hepatic S-9 fractions were prepared by homogenizing the liver in 3 times the volume of 0.15M KCl. Following a 9000×g centrifugation for 20 minutes, the supernatant (S-9) fraction was carefully removed and quickly frozen for storage at -80° C.
ELISA were performed with 96-well microtiter plates precoated with antigen. S-9 was used as antigen and was prepared as a series of geometric dilutions ranging from 0.4 to 500 μg protein/mL PBS. One-tenth mL from each dilution was promptly pipetted into the wells of a the microtiter plate in quadruplicate. Plates were incubated overnight at 4° C. After washing with 0.05% Tween 20 (polyoxyethylenesorbitan monolaurate) in phosphate buffered saline (PBS), individual wells were saturated with 0.2 mL bovine serum albumin (20 mg/mL in PBS) for 2 hours at 37° C. Wells were then incubated with antiphosphotyrosine monoclonal antibody (1.5 μg/mL ascites fluid) in 1 mg/mL bovine serum albumin and 0.05% Tween 20 in PBS, and bound for 1 to 1.5 hours at 22° C. Incubation with horseradish peroxidase-linked antimouse IgG (Sigma, St. Louis; 0.5×10^3 mg IgG/mL PBS) and subsequent washing was performed as with the original monoclonal antibody. Peroxidase activity was determined after incubation with substrate (0.03% H2 O2 and 1 mM 2,2'-azinodi(d-ethyl-benzthiazoline sulfonic acid-6) dissolved in 100 mM sodium citrate (pH 4.2) at 22° C. At the first visualization of color change A415 values were recorded.

[2] = test system: total cell lysate protein tyrosylphosphorylation in X3 human lymphoblastoma cells; test: ELISA with antiphosphotyrosine monoclonal antibody, X3 cell lysate; format: cell-based; details: 16 hours
Procedure: The X3 human lymphoblastoma cells (Genetest, Wolburn, Mass.) were grown in 75 cm^2 T-flasks in RPMI 1640 medium (Gibco) containing 9% horse serum. Any cell or cell line expressing cytochrome P-450IA1 may be used. The cells were cultured at 37° C. in a 5% CO2 (balance air) environment. Cells were subcultured by centrifuging (1000 rpm, 3 minutes) and resuspended in fresh media to a volume of 50 mL (at a cell density of 1.0×10^6 cells/mL). The TCDD-corn oil solution was homogenized with serum to a final concentration of 0.10 μg/mL. The TCDD-serum was added at concentrations of 0, 0.02, 0.05, 0.1, 0.5 and 1.0 nM per flask and incubated for 16 hours. After the appropriate incubation time, the cells were harvested by centrifugation and washed three times (PBS, […]). A final cell count was then determined.
ELISA were performed with 96-well microtiter plates precoated with antigen. X3 cell lysate was used as antigen and was prepared as a series of geometric dilutions ranging from 0.4 to 500 μg protein/mL PBS. One-tenth mL from each dilution was promptly pipetted into the wells of the microtiter plate in quadruplicate. […] Peroxidase activity was determined after incubation with substrate (0.03% H2 O2 and 1 mM 2,2'-azinodi(d-ethyl-benzthiazoline sulfonic acid-6) dissolved in 100 mM sodium citrate (pH 4.2) at 22° C. At the first visualization of color change A415 values were recorded.

Ah receptor [3] = details: cited from earlier work
Ah receptor [4] = details: cited from earlier work; remark: listed apart in the source
human receptor = details: cited from earlier work
[5] = test system: AHH and delta-ALA (delta-aminolaevulinic acid) synthetase; details: versus other inducers, such as 3-methyl-cholanthrene; cited from earlier work
C57BL/6J mouse strain = details: cited from earlier work
EGF receptor = details: cited from earlier work

**Q.** With `Clc1cc2c(cc1Cl)Oc1cc(Cl)c(Cl)cc1O2` [TCDD, 2,3,7,8-tetrachlorodibenzo-p-dioxin] as the compound, how does the “dose of maximal total protein tyrosylphosphorylation” value ([1]; ELISA, i.p., 24 hours after dosing, female C57BL/6 mice) read?
**A.** Its value is 2 μg TCDD/kg.

**Q.** And the ED50 ([1]; Mus musculus, ip, ELISA, i.p., 24 hours after dosing, female C57BL/6 mice, read-out: median effective dose (ED50), total hepatic S-9 pTP)?
**A.** The ED50 was 0.5 µg/kg.

**Q.** And the “separation of ED50s for total protein or 44 kDalton pTP and EROD” value ([1]; ratio to EROD ED50 (A3), C57BL/6 mice)?
**A.** Its value is 10 factor.

**Q.** And the “concentration of maximal total protein tyrosylphosphorylation” value [2]?
**A.** Its value is 1 nM.

**Q.** And the EC50 ([2]; Homo sapiens)?
**A.** Its EC50 is 0.13 nM.

**Q.** What about the “equilibrium dissociation constant (Kd), earlier Scatchard analysis” value (Ah receptor [3]; almost all Ah receptors studied) of the same compound?
**A.** Its value is “nM range”.

**Q.** What about the “Kd, newer experimental approaches” value (Ah receptor [3]) of the same compound?
**A.** The value was “pM range”.

**Q.** What about the “binding affinity to Ah receptor” value (Ah receptor [3]) of the same compound?
**A.** The value was “binds most strongly”.

**Q.** What about the “hepatic level of TCDD binding Ah receptor” value (Ah receptor [4]; DBA/2 mouse) of the same compound?
**A.** The value was “less than 1 fmol of receptor/mg of cytosolic protein”.

**Q.** What about the “binding to DBA/2 mouse receptor” value (Ah receptor [4]) of the same compound?
**A.** Its value is “Weaker binding”.

**Q.** What about the “binding to human receptor” value (human receptor) of the same compound?
**A.** Its value is “Weaker binding”.

**Q.** What about the “potency in induction of AHH and delta-ALA synthetase” value [5] of the same compound?
**A.** Its value is “orders of magnitude more potent”.

**Q.** And the “susceptibility to TCDD-induced toxicity” value (C57BL/6J mouse strain)?
**A.** The value was “very susceptible”.

**Q.** What about the “plasma membrane EGF receptor levels” value (EGF receptor) of the same compound?
**A.** The value was “up-regulates plasma membrane EGF receptor levels”.
